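Growth conditions: 96-well plates. Treatment: test compound, 48 hours, 5 concentrations. Analysis: linear interpolation between bracketing concentrations; unreached endpoints set to highest concentration. GI50: concentration for 50% inhibition of growth.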 Activity calls are given as the source filed them. Rule as the data show it: active = GI50 up to about 1.1 µM and inactive = higher.
Key:
Assay in all cases: growth of human tumour cells (NCI), 48 h
COLO 205 = tested on: COLO 205
DU-145 = tested on: DU-145
EKVX = tested on: EKVX
HOP-62 = tested on: HOP-62
HOP-92 = tested on: HOP-92
Hs-578T = tested on: Hs-578T
IGROV-1 = tested on: IGROV-1
M14 = tested on: M14
MDA-N = tested on: MDA-N
NCI-H23 = tested on: NCI-H23
NCI-H460 = tested on: NCI-H460
NCI/ADR-RES = tested on: NCI/ADR-RES
OVCAR-8 = tested on: OVCAR-8
RXF 393 = tested on: RXF 393
SK-MEL-28 = tested on: SK-MEL-28
SNB-19 = tested on: SNB-19
SW-620 = tested on: SW-620
TK-10 = tested on: TK-10
UACC-257 = tested on: UACC-257
UO-31 = tested on: UO-31

Row | SMILES | GI50 (COLO 205) | GI50 (DU-145) | GI50 (EKVX) | GI50 (HOP-62) | GI50 (HOP-92) | GI50 (Hs-578T) | GI50 (IGROV-1) | GI50 (M14) | GI50 (MDA-N) | GI50 (NCI-H23) | GI50 (NCI-H460) | GI50 (NCI/ADR-RES) | GI50 (OVCAR-8) | GI50 (RXF 393) | GI50 (SK-MEL-28) | GI50 (SNB-19) | GI50 (SW-620) | GI50 (TK-10) | GI50 (UACC-257) | GI50 (UO-31)
1 | COC(=O)C1CC23C4=C(CCC41)CCC1CN4CC(C)C(CC(OC(C)=O)C12COC(C)=O)C43O (stereo not given) | > 100 µM (inactive) | > 100 µM (inactive) | > 100 µM (inactive) | > 100 µM (inactive) | > 100 µM (inactive) | > 100 µM (inactive) | > 100 µM (inactive) | > 100 µM (inactive) | > 100 µM (inactive) | > 100 µM (inactive) | > 100 µM (inactive) | > 100 µM (inactive) | > 100 µM (inactive) | > 100 µM (inactive) | > 100 µM (inactive) | > 100 µM (inactive) | > 100 µM (inactive) | > 100 µM (inactive) | > 100 µM (inactive) | > 100 µM (inactive)
2 | CCCCCCCCCCC[N+]1(Cc2ccccc2)CC2CCN(Cc3ccccc3)CC2C1 (stereo not given) | 1.01 µM (active) | 0.47 µM (active) | 0.323 µM (active) | 0.818 µM (active) | 0.451 µM (active) | 0.354 µM (active) | 0.429 µM (active) | 0.383 µM (active) | 0.233 µM (active) | 0.181 µM (active) | 1.29 µM (inactive) | 5.09 µM (inactive) | 0.422 µM (active) | 0.587 µM (active) | 0.665 µM (active) | 0.371 µM (active) | 0.381 µM (active) | 1.29 µM (inactive) | 0.288 µM (active) | 1.3 µM (inactive)
3 | CC(=O)OC12OC(C)(C3C(=O)N(c4ccccc4)C(=O)C31)N(c1ccccc1)C2=O (stereo not given) | > 100 µM (inactive) | > 100 µM (inactive) | 84.7 µM (inactive) | > 100 µM (inactive) | 45.7 µM (inactive) | > 100 µM (inactive) | > 100 µM (inactive) | > 100 µM (inactive) | > 100 µM (inactive) | > 100 µM (inactive) | > 100 µM (inactive) | > 100 µM (inactive) | > 100 µM (inactive) | > 100 µM (inactive) | > 100 µM (inactive) | > 100 µM (inactive) | > 100 µM (inactive) | > 100 µM (inactive) | 16.7 µM (inactive) | > 100 µM (inactive)
4 | COC(=O)NCCc1n[nH]c2c1C(=O)C=C(N1CCOCC1)C2=O | > 100 µM (inactive) | > 100 µM (inactive) | > 100 µM (inactive) | > 100 µM (inactive) | > 100 µM (inactive) | > 100 µM (inactive) | > 100 µM (inactive) | > 100 µM (inactive) | > 100 µM (inactive) | > 100 µM (inactive) | > 100 µM (inactive) | > 100 µM (inactive) | > 100 µM (inactive) | > 100 µM (inactive) | > 100 µM (inactive) | > 100 µM (inactive) | > 100 µM (inactive) | > 100 µM (inactive) | > 100 µM (inactive) | > 100 µM (inactive)
5 | C[N+]1(C)CCCC(C#N)(c2ccccc2)CC1 (stereo not given) | > 100 µM (inactive) | > 100 µM (inactive) | > 100 µM (inactive) | > 100 µM (inactive) | > 100 µM (inactive) | > 100 µM (inactive) | > 100 µM (inactive) | > 100 µM (inactive) | > 100 µM (inactive) | > 100 µM (inactive) | > 100 µM (inactive) | > 100 µM (inactive) | > 100 µM (inactive) | > 100 µM (inactive) | > 100 µM (inactive) | > 100 µM (inactive) | > 100 µM (inactive) | > 100 µM (inactive) | > 100 µM (inactive) | > 100 µM (inactive)

Source: ChEMBL document CHEMBL1201862, “PubChem BioAssay data set” (2004)
